# Literature values, collected in paper PMC9230797, “Integration of a Physiologically Based Pharmacokinetic and Pharmacodynamic Model for Tegoprazan and Its Metabolite: Application for Predicting Food Effect and Intragastric pH Alterations” (Pharmaceutics, 2022).
# Read-outs that look alike come from different tables or passages of the source.
# Assays:
# [1] = design: method as in PMID 28378544; conditions: cited from earlier work
# [2] = cited from earlier work
# [3] = design: method as in PMID 19006606; conditions: cited from earlier work
smiles,measurement,setting,value
COc1ccc2[nH]c([S+]([O-])Cc3ncc(C)c(OC)c3C)nc2c1 (stereo not drawn) [omeprazole],mean AUC0–12 h,"[1]; CYP2C19 EM, multiple administrations",1715 ng·h/mL
same,mean AUC0–12 h,"[1]; CYP2C19 EM, single administration",713.5 ng·h/mL
same,mean AUC0–12 h,"[1]; CYP2C19 IM, multiple administrations",2087 ng·h/mL
same,mean AUC0–12 h,"[1]; CYP2C19 IM, single administration",972.5 ng·h/mL
same,mean AUC0–12 h,"[1]; CYP2C19 PM, multiple administrations",3669 ng·h/mL
same,mean AUC0–12 h,"[1]; CYP2C19 PM, single administration",3652 ng·h/mL
same,AUC0–12 h ratio PM vs EM,[1]; multiple administrations,2.14 fold
same,AUC0–12 h ratio PM vs IM,[1]; multiple administrations,1.76 fold
same,AUC0–12 h ratio PM vs EM,[1]; single administration,5.12 fold
same,AUC0–12 h ratio PM vs IM,[1]; single administration,3.76 fold
same,"PK parameters (Tmax, AUC, half-life, Cmax) after a high-fat meal",[2],tended to fluctuate significantly
COc1ccnc(C[S+]([O-])c2nc3ccc(OC(F)F)cc3[nH]2)c1OC (stereo not drawn) [pantoprazole],"PK parameters (Tmax, AUC, half-life, Cmax) after a high-fat meal",[2],tended to fluctuate significantly
COCCCOc1ccnc(C[S+]([O-])c2nc3ccccc3[nH]2)c1C (stereo not drawn) [rabeprazole],"PK parameters (Tmax, AUC, half-life, Cmax) after a high-fat meal",[2],tended to fluctuate significantly
COc1ccc2[nH]c([S+]([O-])Cc3ncc(C)c(OC)c3C)nc2n1 (stereo not drawn) [tenatoprazole],plasma half-life,[3],up to 9 h
CNCc1cc(-c2ccccc2F)n(S(=O)(=O)c2cccnc2)c1 [vonoprazan],effect of food intake on PK parameters,[2],not significantly affected
